Data as given in patent publication US12077503B2, “Substituted cyclic amides and their use as herbicides” (FMC CORPORATION, priority 2015, dated 2024).

Experiments:
Format in all cases: in vivo
[1] = system: Kochia (Kochia scoparia); assay: Test A preemergence
Procedure, shortened: (§1)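 Each rating is a visual injury score from 0 to 100 given about 10 d after treatment, judged against untreated controls kept alongside in the greenhouse. In loam soil–sand blend, seeds got a preemergence directed soil spray, while postemergence plants were 2 to 10 cm tall at spraying.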

[2] = system: barnyardgrass (Echinochloa crus-galli); assay: Test A preemergence
Procedure, shortened: as §1

[3] = system: giant foxtail (Setaria faberii); assay: Test A preemergence
Procedure, shortened: as §1

[4] = system: pigweed (Amaranthus retroflexus); assay: Test A preemergence
[5] = system: ragweed (common ragweed, Ambrosia elatior); assay: Test A preemergence
Procedure, shortened: as §1

[6] = system: ryegrass, Italian (Italian ryegrass, Lolium multiflorum); assay: Test A preemergence
Procedure, shortened: as §1

[7] = system: Galium (catchweed bedstraw, Galium aparine); assay: Test A postemergence; settings: postemergence
Procedure, shortened: as §1

[8] = system: Kochia (Kochia scoparia); assay: Test A postemergence; settings: postemergence
Procedure, shortened: as §1

[9] = system: barnyardgrass (Echinochloa crus-galli); assay: Test A postemergence; settings: postemergence
Procedure, shortened: as §1

[10] = system: blackgrass (Alopecurus myosuroides); assay: Test A postemergence; settings: postemergence
Procedure, shortened: as §1

[11] = system: corn (Zea mays); assay: Test A postemergence; settings: postemergence
Procedure, shortened: as §1

[12] = system: giant foxtail (Setaria faberii); assay: Test A postemergence; settings: postemergence
Procedure, shortened: as §1

[13] = system: pigweed (Amaranthus retroflexus); assay: Test A postemergence; settings: postemergence
Procedure, shortened: as §1

[14] = system: ragweed (common ragweed, Ambrosia elatior); assay: Test A postemergence; settings: postemergence
Procedure, shortened: as §1

[15] = system: ryegrass, Italian (Italian ryegrass, Lolium multiflorum); assay: Test A postemergence; settings: postemergence
Procedure, shortened: as §1

[16] = system: wheat (Triticum aestivum); assay: Test A postemergence; settings: postemergence
Procedure, shortened: as §1

[17] = system: barnyardgrass (Echinochloa crus-galli); assay: Test B flooded paddy test; settings: Flood, 250 g ai/ha; 0 to 100 scale where 0 is no effect and 100 is complete control; 13 to 15 d
Procedure, shortened: (§2)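 Compound goes directly into floodwater once pots are flooded 3 cm above soil, targeting plants at two leaves; the water depth is then held for the test duration. Plants sit 13–15 d in a greenhouse and are rated visually, 100 denoting complete control.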

[18] = system: ducksalad (Heteranthera limosa); assay: Test B flooded paddy test; settings: Flood, 250 g ai/ha; 0 to 100 scale where 0 is no effect and 100 is complete control; 13 to 15 d
Procedure, shortened: as §2

[19] = system: rice (Oryra sativa); assay: Test B flooded paddy test; settings: Flood, 250 g ai/ha; 0 to 100 scale where 0 is no effect and 100 is complete control; 13 to 15 d
Procedure, shortened: as §2

[20] = system: sedge, umbrella (small-flower umbrella sedge, Cyperus difformis); assay: Test B flooded paddy test; settings: Flood, 250 g ai/ha; 0 to 100 scale where 0 is no effect and 100 is complete control; 13 to 15 d
Procedure, shortened: as §2

[21] = system: barnyardgrass (Echinochloa crus-galli); assay: Test C flooded paddy test; settings: Flood, 0 is no effect, 100 is complete control
From the text: (§3) Plant species in the flooded paddy test consisted of rice (Oryza sativa), sedge, umbrella (small-flower umbrella sedge, Cyperus difformis), ducksalad (Heteranthera limosa), and barnyardgrass (Echinochloa crus-galli) grown to the 2-leaf stage for testing. At time of treatment, test pots were flooded to 3 cm above the soil surface, treated by application of test compounds directly to the paddy water, and then maintained at that water depth for the duration of the test. Treated plants and controls were maintained in a greenhouse for 13 to 15 d, after which time all species were compared to controls and visually evaluated. Plant response ratings, summarized in Table C, are based on a scale of 0 to 100 where 0 is no effect and 100 is complete control. A dash (-) response means no test result.

[22] = system: ducksalad (Heteranthera limosa); assay: Test C flooded paddy test; settings: Flood, 0 is no effect, 100 is complete control
From the text: as §3

[23] = system: rice (Oryza sativa); assay: Test C flooded paddy test; settings: Flood, 0 is no effect, 100 is complete control
From the text: as §3

[24] = system: sedge, umbrella (small-flower umbrella sedge, Cyperus difformis); assay: Test C flooded paddy test; settings: Flood, 0 is no effect, 100 is complete control
From the text: as §3

[25] = 125 g ai/ha, preemergence, 0 to 100 scale (0 no effect, 100 complete control)
[26] = Preemergence, 500 g ai/ha, visual injury approx. 10 d
[27] = 125 g ai/ha, visual injury rating on 0 to 100 scale (0 no effect, 100 complete control), approx. 10 d
[28] = 500 g ai/ha, 0 to 100 scale, 0 no effect, 100 complete control

O=C1NCC(c2ccc(F)cc2F)C1C(=O)Nc1cccc(F)c1F (stereo not shown) [Compound 455]
Plant response rating, Kochia [1, 25]: 20 | Kochia plant response rating (0 to 100 scale, 0 is no effect, 100 is complete control) [1, 26]: 50 | Plant response rating, Barnyardgrass [2, 25]: 70 | Barnyardgrass plant response rating (0 to 100 scale, 0 is no effect, 100 is complete control) [2, 26]: 90 | Plant response rating, Foxtail, Giant [3, 25]: 80 | Foxtail, Giant plant response rating (0 to 100 scale, 0 is no effect, 100 is complete control) [3, 26]: 90 | Plant response rating, Pigweed [4, 25]: 0 | Pigweed plant response rating (0 to 100 scale, 0 is no effect, 100 is complete control) [4, 26]: 50 | Plant response rating, Ragweed [5, 25]: 0 | Ragweed plant response rating (0 to 100 scale, 0 is no effect, 100 is complete control) [5, 26]: 0 | Plant response rating, Ryegrass, Italian [6, 25]: 0 | Ryegrass, Italian plant response rating (0 to 100 scale, 0 is no effect, 100 is complete control) [6, 26]: 0 | Galium plant response rating [7, 27]: 30 | Plant response rating, Galium [7, 28]: 70 | Kochia plant response rating [8, 27]: 60 | Plant response rating, Kochia [8, 28]: 70 | Barnyardgrass plant response rating [9, 27]: 70 | Plant response rating, Barnyardgrass [9, 28]: 80 | Blackgrass plant response rating [10, 27]: 0 | Plant response rating, Blackgrass [10, 28]: 0 | Corn plant response rating [11, 27]: 0 | Plant response rating, Corn [11, 28]: 0 | Foxtail, Giant plant response rating [12, 27]: 70 | Plant response rating, Foxtail, Giant [12, 28]: 80 | Pigweed plant response rating [13, 27]: 50 | Plant response rating, Pigweed [13, 28]: 60 | Ragweed plant response rating [14, 27]: 0 | Plant response rating, Ragweed [14, 28]: 0 | Ryegrass, Italian plant response rating [15, 27]: 0 | Plant response rating, Ryegrass, Italian [15, 28]: 0 | Wheat plant response rating [16, 27]: 0 | Plant response rating, Wheat [16, 28]: 30 | Plant response rating, Barnyardgrass [17]: 75 | Plant response rating, Ducksalad [18]: 100 | Plant response rating, Rice [19]: 0 | Plant response rating, Sedge, Umbrella [20]: 0 | Plant response rating (scale of 0 to 100), Barnyardgrass ([21]; 31 g ai/ha): 0 | Plant response rating (scale of 0 to 100), Barnyardgrass ([21]; 62 g ai/ha): 0 | Plant response rating (scale of 0 to 100), Barnyardgrass ([21]; 125 g ai/ha): 0 | Plant response rating (scale of 0 to 100), Barnyardgrass ([21]; 250 g ai/ha): 50 | Plant response rating (scale of 0 to 100), Ducksalad ([22]; 31 g ai/ha): 0 | Plant response rating (scale of 0 to 100), Ducksalad ([22]; 62 g ai/ha): 40 | Plant response rating (scale of 0 to 100), Ducksalad ([22]; 125 g ai/ha): 80 | Plant response rating (scale of 0 to 100), Ducksalad ([22]; 250 g ai/ha): 100 | Plant response rating (scale of 0 to 100), Rice ([23]; 31 g ai/ha): 0 | Plant response rating (scale of 0 to 100), Rice ([23]; 62 g ai/ha): 0 | Plant response rating (scale of 0 to 100), Rice ([23]; 125 g ai/ha): 0 | Plant response rating (scale of 0 to 100), Rice ([23]; 250 g ai/ha): 0 | Plant response rating (scale of 0 to 100), Sedge, Umbrella ([24]; 31 g ai/ha): 0 | Plant response rating (scale of 0 to 100), Sedge, Umbrella ([24]; 62 g ai/ha): 0 | Plant response rating (scale of 0 to 100), Sedge, Umbrella ([24]; 125 g ai/ha): 0 | Plant response rating (scale of 0 to 100), Sedge, Umbrella ([24]; 250 g ai/ha): 0
